Test results as given in the NIST ThermoML archive (doi:10.1016/j.jct.2017.12.023).

Experiments:
[1] = xn = mol fraction of the nth substance listed; settings: 100 kPa, Liquid, x2 = 0; for viscosity: Concentric cylinders viscometry; for mass density: Vibrating tube method
[2] = refractive index (Na D-line) (dimensionless); xn = mol fraction of the nth substance listed; settings: 100 kPa, Liquid, Standard Abbe refractometry, x2 = 0
[3] = Liquid; for viscosity / mass density: 100 kPa; for viscosity: Concentric cylinders viscometry; for mass density: Vibrating tube method; for thermal conductivity: 101.33 kPa, transient hot wire
[4] = refractive index (Na D-line) (dimensionless); settings: 100 kPa, Liquid, Standard Abbe refractometry

CCCCCCO [hexan-1-ol] + CCOS(=O)(=O)[O-].CCn1cc[n+](C)c1
Settings	mass density, [1] [kg/m3]	refractive index, [2]	viscosity, [1] [mPa·s]
288.15 K	822.26	1.41986	6.297
293.15 K	818.69	1.4179	5.324
298.15 K	815.11	1.41591	4.53
303.15 K	811.51	1.41386	3.889
308.15 K	807.88	1.41182	3.355
313.15 K	804.23	1.40981	2.912
318.15 K	800.56	1.40779	2.541
323.15 K	796.85	1.40574	2.251

CN1CCCC1=O [N-methylpyrrolidone] + CCOS(=O)(=O)[O-].CCn1cc[n+](C)c1
Settings	mass density, [1] [kg/m3]	refractive index, [2]	viscosity, [1] [mPa·s]
288.15 K	1037.3	1.47166	1.99
293.15 K	1032.84	1.46952	1.823
298.15 K	1028.38	1.46736	1.679
303.15 K	1023.93	1.4652	1.555
308.15 K	1019.46	1.46306	1.444
313.15 K	1015	1.46095	1.346
318.15 K	1010.53	1.45891	1.259
323.15 K	1006.06	1.4568	1.182
328.15 K	1001.58	1.45473	1.11
333.15 K	997.1	1.45267	1.043

CCCCCCO [hexan-1-ol]
Settings	mass density, [3] [kg/m3]	refractive index, [4]	viscosity, [3] [mPa·s]
288.15 K	822.26	1.41986	6.297
293.15 K	818.69	1.4179	5.324
298.15 K	815.11	1.41591	4.53
303.15 K	811.51	1.41386	3.889
308.15 K	807.88	1.41182	3.355
313.15 K	804.23	1.40981	2.912
318.15 K	800.56	1.40779	2.541
323.15 K	796.85	1.40574	2.251

CCOS(=O)(=O)[O-].CCn1cc[n+](C)c1 [1-ethyl-3-methylimidazolium ethyl sulfate]
Settings	mass density, [3] [kg/m3]	refractive index, [4]	thermal conductivity, [3] [W/m/K]	viscosity, [3] [mPa·s]
288.15 K	1243.07	1.48155	–	155.55
293.15 K	1239.66	1.48018	–	117.88
298.15 K	1236.27	1.47882	–	91.26
303.15 K	1232.87	1.47746	0.1808	72.1
308.15 K	1229.49	1.47611	0.18	57.98
313.15 K	1226.13	1.47474	0.1795	47.26
318.15 K	1222.79	1.47341	0.1787	39.25
323.15 K	1219.46	1.47206	0.178	32.94
328.15 K	1216.16	1.47075	–	27.96
333.15 K	1212.86	1.46943	–	24.09
